Reference: patent US4578393A, “Dihydroisoquinoline derivatives” (Beecham Group p.l.c., priority 1983, dated 1986)
Where a name gives a salt, the structure may show the parent alone. Read-outs that look alike come from different tables or passages of the source.

Experiments:
[1] = test system: adjuvant arthritis in the rat; assay: Adjuvant arthritis test in the rat; type: in vivo; conditions: read-out: ACTIVE DOSE
Description: The test is as described by Newbould, Brit. J. Pharmacol., 1963, 21, 127-136. Compounds were active at the doses shown below.

5-Lipoxygenase enzyme = target: T1, 5-Lipoxygenase enzyme (Rattus norvegicus, UniProt P12527); assay: Inhibition of 5-lipoxygenase activity (10,000 g supernatant from RBL-1 cells); type: biochemical; conditions: RBL-1 supernatant, 6.3 μm arachidonic acid, 29° C.
T1 construct: 5-Lipoxygenase enzyme was prepared as a 10,000 g supernatant from RBL-1 cells; endogenous in cells; host or cells: RBL-1 cells (10,000 g supernatant)
T1 sequence (P12527 1-673): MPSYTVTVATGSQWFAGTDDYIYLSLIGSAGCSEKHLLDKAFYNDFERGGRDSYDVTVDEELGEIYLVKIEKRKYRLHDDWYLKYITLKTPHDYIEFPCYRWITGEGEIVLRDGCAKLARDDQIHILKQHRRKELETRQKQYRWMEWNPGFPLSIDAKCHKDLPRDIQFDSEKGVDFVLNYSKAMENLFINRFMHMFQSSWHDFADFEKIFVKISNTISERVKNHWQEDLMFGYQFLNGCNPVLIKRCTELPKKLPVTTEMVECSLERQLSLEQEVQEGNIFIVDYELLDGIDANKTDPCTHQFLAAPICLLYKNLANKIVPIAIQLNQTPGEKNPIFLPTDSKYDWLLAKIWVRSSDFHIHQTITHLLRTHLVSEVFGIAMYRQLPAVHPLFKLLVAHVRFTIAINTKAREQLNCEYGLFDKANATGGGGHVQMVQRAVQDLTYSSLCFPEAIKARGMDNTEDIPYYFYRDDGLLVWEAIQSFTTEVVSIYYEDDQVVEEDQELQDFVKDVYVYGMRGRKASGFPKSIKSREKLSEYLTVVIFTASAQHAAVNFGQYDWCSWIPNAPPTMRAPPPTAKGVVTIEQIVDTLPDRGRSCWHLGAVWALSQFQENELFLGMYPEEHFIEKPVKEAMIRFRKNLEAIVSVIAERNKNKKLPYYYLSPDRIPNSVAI
Description: 5-Lipoxygenase enzyme was prepared as a 10,000 g supernatant from RBL-1 cells by the method of Jakschik [Jakschik, B. A., F. F. Sun, L. M. Lee, and M. M. Steinhoff, 1980, Biochem. Biophys. Res. Comm. 95, 103]. The 10,000 g supernatant was diluted with homogenization buffer to the equivalent of 1.5-2.5×10^7 cells. ml^-1 and made 2 mM with respect to CaCl2. Aliquots of 0.5 ml were then dispensed into tubes, and incubated at 29° C. with 5 μl ethanol or compound in ethanol at the desired concentration for 2 min. Then [1-^14 C] arachidonic acid was added in buffer to give a final concentration of 6.3 μm and 0.2 μCi per incubation, and the reaction continued at 29° C. for 2 min. The reaction was terminated by adding 1 ml of acetone and cooling on ice, 0.5 ml of ice-cold saline and 10 μl of 2N formic acid were added, and the mixture was extracted with 2×2 ml of chloroform. The extract was stored under N2 at -20° C. until analysis by chromatography. Activity was measured as the percentage of total radioactivity found in 5-HETE and 5,12-diHETE, and inhibition calculated as the decrease in formation of the sum of these two species in compound-treated incubates relative to control incubates.
(P values as assessed by the students `t` test).

| SMILES | minimal effective dose ([1]; po) [mg/kg] | inhibition of 5-lipoxygenase (formation of 5-HETE and 5,12-diHETE) (5-Lipoxygenase enzyme; concentration of 5 μm) [%] | inhibition of 5-lipoxygenase (formation of 5-HETE and 5,12-diHETE) (5-Lipoxygenase enzyme; concentration of 50 μm) [%] | minimal effective dose ([1]; ip) [mg/kg] |
| --- | --- | --- | --- | --- |
| CN(C)C1=NC(c2ccccc2Cl)c2ccccc2C1.Cl (stereo not shown) [Example 1, 1-(2-Chlorophenyl)-3-dimethylamino-1,4-dihydroisoquinoline hydrochloride] | 25 | 15 | 50 | – |
| CN(C)C1=NC(c2ccc(Cl)cc2)c2ccccc2C1.Cl.O (stereo not shown) [Example 2, 1-(4-Chlorophenyl)-3-dimethylamino-1,4-dihydroisoquinoline hydrochloride hydrate] | 12.5 | – | – | – |
| CN(C)C1=NC(c2ccccc2F)c2ccccc2C1 (stereo not shown) [Example 10, 1-(2-Fluorophenyl)-1,4-dihydro-3-dimethylaminoisoquinoline hydrochloride] | 25 | – | – | – |
| Br.CN(C)C1=NC(c2ccc(Cl)cc2)c2cc(O)c(O)cc2C1 (stereo not shown) [Example 30, 1-(4-Chlorophenyl)-6,7-dihydroxy-3-dimethylamino-1,4-dihydroisoquinoline hydrobromide] | – | 37 | 92 | 12.5 |
| Br.CN(C)C1=NC(c2ccc(Cl)cc2)c2c(O)cccc2C1.O (stereo not shown) [Example 31, 1-(4-Chlorophenyl)-3-dimethylamino-8-hydroxy-1,4-dihydroisoquinoline hydrobromide hydrate] | – | – | – | 20 |
| Br.CN(C)C1=NC(c2ccc(Cl)cc2)c2ccc(O)cc2C1 (stereo not shown) [Example 32, 1-(4-Chlorophenyl)-3-dimethylamino-6-hydroxy-1,4-dihydroisoquinoline hydrobromide] | – | – | – | 25 |
